# Source: US9271936B2, “Method for forming mesoporous silica nanoparticles, mesoporous silica nanoparticles, and applications thereof” (UNIVERSITY OF MARYLAND, priority 2008, dated 2016)
# Tests used:
# [1] = Loading (uptake) of target material into MSN, UV-Vis spectroscopy; assay type: physicochemical
# [2] = cited from earlier work
# [3] = Release of target material from MSN, UV-Vis spectroscopy; conditions: after subsequent pH decrease to approximately pH 5.0
smiles,measurement,setting,value
COc1cccc2c1C(=O)c1c(O)c3c(c(O)c1C2=O)C[C@@](O)(C(=O)CO)C[C@@H]3O[C@H]1C[C@H](N)[C@H](O)[C@H](C)O1 [doxorubicin],uptake into MSN,[1],approximately 3 ug/mg MSN
same,pKa,[2],~7
same,amount released per mg of MSN at equilibrium,[3],about 7.5 ug per mg of MSN
